Test results taken from US8691584B2, “Sperm processing methods” (priority 2003, dated 2014).

System: Spermatozoa
Test: Post-thaw sperm motility under phase contrast microscope (Cryopreservation Example I)
Format: cell-based, Bovine
Settings: Hoechst 33342 added to aliquots in TCA buffer, 20 min at 35° C. or 41° C., cryopreserved, thawed 37° C. 50 seconds; analysis of variance
Method: Bovine semen was collected, transported, and evaluated as described above. Two test tubes containing 5 ml each of TCA buffer (pH 7.3) were placed in one of two water baths for at least five minutes. One water bath was at a temperature of 35° C. and the other water bath was at 41° C. Spermatozoa at 24° C. were added to each tube so that the final concentration in each tube was 150×10^6 sperm/ml. The two tubes were each divided into two aliquots which were kept in respective water baths. After the sperm had equilibrated with the TCA buffer for five minutes, […] was added to one of 35° C. aliquots and one of the 41° C. aliquots. After addition of the Hoechst 33342, all four aliquots were incubated for 20 minutes in their respective water bath. After incubation, the test tubes were removed from the water baths and left at room temperature (about 25° C.) for five minutes. Then the contents of each test tube were diluted with a TCA extender containing 20% egg yolk and 6% glycerol (v/v) (pH 7.0) to a final concentration of 20×10^6 sperm/ml. The contents of each test tube were then used to fill a 0.5 ml artificial insemination straw. Each of the four straws was placed in a programmable freezer (an IceCube 1810CD freezer from Minitube of America, Wis.). […]

For `CCOc1ccc(-c2nc3ccc(-c4nc5ccc(N6CCN(C)CC6)cc5[nH]4)cc3[nH]2)cc1` [Hoechst 33342], the “effect on post-thaw sperm motility” value was “no significant effect”.
